Experimental data reported in patent US8247211B2, “Glycopeptide antibiotics” (American Cyanamid Company, priority 2001, dated 2012).
Numbered stars: 1 amine (or outer) side, 2 acyl side, 3 side chain; on linkers, the order of the positions; unused ones are H or OH. Square brackets hold non-standard residues; d marks the D form. Peptide text beside a SMILES is read from it. ξ: configuration not given here. X1 = N=C1NCC(C(O)C(N[*:1])C(=O)[*:2])N1C1OC(CO)C(O)C(O)C1O; ξEnduracididine(βξ-OH,4'ξ) = N=C1NCC(C(O)C(N)C(=O)O)N1; Tyr(3,5-Br2) = N[CH](Cc1cc(Br)c(O)c(Br)c1)C(=O)O; ξPhe(βξ-Me) = CC(c1ccccc1)C(N)C(=O)O

How the values were obtained:
[1] = tested on: Escherichia coli; assay: In vitro antibacterial evaluation: minimum inhibitory concentration (MIC), broth dilution method; type: cell-based; settings: broth dilution, 18 hours at 35° C.
[2] = tested on: Staphylococcus sp.; assay: as above; type: cell-based; settings: broth dilution, 18 hours at 35° C.
Procedure, shortened: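 MIC read as lowest drug level preventing visible growth. Organisms at 5×10^5 CFU/mL were exposed to a 64-0.06 μg/mL dilution series in Muller-Hinton II […] following NCCLS broth dilution standard M7-A2.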

CC(c1ccccc1)C1NC(=O)CNC(=O)C(CO)NC(=O)C(C(O)C2CNC(=N)N2C2OC(CO)C(O)C(O)C2O)NC(=O)C(C(O)C2CNC(=N)N2)NC(=O)C(Cc2cc(Br)c(O)c(Br)c2)NC1=O (stereo not drawn) [Example 3, Cyclo[glycyl-β-methylphenylalanyl-3,5-dibromotyrosyl-3-(2-iminoimidazolidin-4-yl)seryl-3-(3-hexopyranosyl-2-iminoimidazolidin-4-yl)serylseryl]] (cyclo(G[ξPhe(βξ-Me)][Tyr(3,5-Br2)][ξEnduracididine(βξ-OH,4'ξ)][X1]S); configuration not given here)
64 µg/mL: MIC Escherichia coli (GC 4560) [1]

CC(c1ccccc1)C1NC(=O)CNC(=O)C(CO)NC(=O)C(C(O)C2CNC(=N)N2C2OC(CO)C(O)C(O)C2O)NC(=O)C(C(O)C2CNC(=N)N2)NC(=O)C(Cc2ccc3oc(-c4ccccc4OC4OC(CO)C(O)C(O)C4O)nc3c2)NC1=O (stereo not drawn) [Example 36]
64 µg/mL: MIC Coagulase Negative Staphylococcus (GC 4547) [2] | MIC Coagulase Negative Staphylococcus (GC 4549) [2] | MIC Coagulase Negative Staphylococcus (GC 6257) [2] | MIC Staphylococcus haemolyticus (GC 4546) [2] | MIC Escherichia coli (GC 4560) [1]
